Experimental data taken from patent US20110008415A1, “NOVEL LIPOPHILIC COMPOSITIONS AND USES THEREOF” (UNIVERSITE DE BRETAGNE OCCIDENTALE, priority 2007, published 2011).

Key:
[1] = basic side chain / imidazole ring; cited from earlier work
[2] = test system: 293T7 cells (human kidney embryonal fibroblasts); experiment: Transfection of 293T7 cells with luciferase plasmid/liposome complexes; assay type: cell-based; conditions: for transfection efficiency when associated with co-lipids 2c or 7b compared with DOPE: 293T line cells, tests considered as a whole; for observed luminescence values: 293T cells; for efficiency gain as compared to DOPE: value in brackets
Procedure: A lipid film was prepared in a sterile flask under nitrogen by dry evaporating 1 mL of a 10.8 mM cationic lipid or a mixture of a cationic lipid/neutral lipid (molar ratio 1:1) in ethanol. The film was then hydrated with 1 mL of 10 mM HEPES buffer, pH 7.4, the solution was vigorously stirred for 3 min, then allowed to rest at 4° C. After 2 h, the solution was sonicated for 15 min in an ultrasonic bath at 37 kHz (Bioblock ultrasonic bath, Bioblock Scientific, Illkirch, France).
18 μl of a solution of liposomes at 5.4 mM were diluted in 200 μl of 10 mM HEPES buffer, pH 7.4. After 15 min, 7.5 μg of a plasmid encoding the gene of the luciferase (pTG11033; 9514 bp, Transgene S. A., Strasbourg, France) in 20 μl of 10 mM HEPES buffer, pH 7.4, were added to the liposomes and the mixture was allowed to rest for 30 min. The solution comprising the DNA/liposome complexes was adjusted to 1.5 ml with some culture medium free of serum and at 0.15M NaCl with a solution of 5M NaCl.
Two days before transfection, 293T7 cells (human kidney embryonal fibroblasts) were seeded with 1×10^5 cells in 1 mL of a culture medium in a 24-well plate. The day of the transfection, cells achieved 80% confluence. Cells were washed twice with some medium free of serum prior to adding 2.5 μg of DNA in the form of DNA/liposome complexes. After 4 h of incubation at 37° C., the medium was removed and cells were cultured for 48 h with complete culture medium.
The culture medium of the cells was removed and each well was rinsed with 500 μL of PBS. Cell detachment was obtained with 500 μL of the PBS+trypsin per well for 5 min at 37° C. The cell suspension was then centrifuged for 5 min at 250×g (1500 rpm) at 20° C. 400 μL of lysis buffers (CCLR, Promega) were added on the cell pellet, which was allowed to incubate onto ice for 15 min. After Vortex-stirring, centrifugation was effected at 12 000×g for 2 min at 4° C. The luciferase activity contained in 20 μL of supernatant was measured using a luminometer (Bertold Lumat LB 9501) for 10 seconds after injection of 100 μL of luciferin (Luciferase Assay Reagent, Promega). The light transmitted was converted to arbitrary units relative to the protein amount in the sample determined through the bicinchoninic acid method.
The protein amount in the lysate was evaluated through the BCA method (H. Hill and G. Straka, 1998). Proteins were contacted with bicinchoninic acid (BCA) and copper ions in an alkaline medium. The copper ions resulting from the protein-mediated reduction thereof formed stable, colored complexes with BCA. Coloration is objectified through spectrophotometric determination (562 nm). Once a standard range was obtained using bovine serum albumin, the weight of protein contained in the cell lysates was calculated.

[3] = pKa of basic side chain / imidazole ring; assay type: physicochemical
[4] = co-lipid 2c (molar ratio 1:1), 48 h after transfection
[5] = co-lipid 7b (molar ratio 1:1), 48 h after transfection
[6] = co-lipid DOPE (molar ratio 1:1), 48 h after transfection
[7] = no co-lipid (—), luciferase plasmid pTG11033, 48 h after transfection

| imidazole ring protonated at a physiological pH [3] | Compound | pKa [1] | transfection efficiency when associated with co-lipids 2c or 7b compared with DOPE [2] | observed luminescence values [2, 4] | efficiency gain as compared to DOPE ([2]; co-lipid 2c) | observed luminescence values [2, 5] | efficiency gain as compared to DOPE ([2]; co-lipid 7b) | observed luminescence values [2, 6] | observed luminescence values [2, 7] |
| --- | --- | --- | --- | --- | --- | --- | --- | --- | --- |
|  | COC(=O)[C@@H](N)CCCCN [lysine methyl ester] | 10.57 |  |  |  |  |  |  |  |
|  | N=C(N)NCCCC[C@H](N)C(=O)O [Homoarginine] | 12.5 |  |  |  |  |  |  |  |
|  | lysine methyl ester dioleoyl-N-phosphoramidate [compound 4] |  | more efficient | 5.10^7 TRLU | 1.6 | 4.10^7 TRLU | 1.3 | 3.10^7 TRLU | 2.10^7 TRLU |
|  | arginine methyl ester dioleoyl-N-phosphoramidate [3a] |  | more efficient | 5.10^8 TRLU | 100 | 10^6 TRLU | 0.2 | 5.10^6 TRLU | 7.10^6 TRLU |
|  | c1c[nH]cn1 [imidazole] | about 6 |  |  |  |  |  |  |  |
|  | COC(=O)[C@@H](N)CCCNC(=N)N [arginine methyl ester] | 12.48 |  |  |  |  |  |  |  |
|  | homoarginine methyl ester dioleoyl-N-phosphoramidate [3b] |  | more efficient | 3.10^9 TRLU | 1000 | 3.10^7 TRLU | 10 | 3.10^6 TRLU | 9.10^6 TRLU |
| about 5% | N[C@@H](Cc1c[nH]cn1)C(=O)O [histidine] |  |  |  |  |  |  |  |  |
